Test results published in patent US12252524B2, “GIP/GLP1 co-agonist compounds” (Eli Lilly and Company, priority 2018, dated 2025).
Numbered stars: 1 amine (or outer) side, 2 acyl side, 3 side chain; on linkers, the order of the positions; unused ones are H or OH. Square brackets hold non-standard residues; d marks the D form. Side chains are listed from the residue outwards. Peptide text beside a SMILES is read from it. * marks the point of attachment. C20 diacid = O=C(O)CCCCCCCCCCCCCCCCCCC(=O)*; C18 diacid = O=C(O)CCCCCCCCCCCCCCCCC(=O)*; γGlu = O=C(O)[C@H](CCC(=O)[*:2])N[*:1]; αMeL = CC(C)C[C@](C)(N)C(=O)O; Orn = NCCC[C@H](N)C(=O)O; AEEA = NCCOCCOCC(=O)O; Aib = CC(C)(N)C(=O)O

Legend:
[1] = biological target: T1, gastric inhibitory peptide receptor (GIPR) (Homo sapiens, UniProt P48546); assay: cAMP pharmacological functional assay in presence of casein, hGIPR; format: cell-based; conditions: HEK293 cells expressing hGIPR, 0.1% Casein, geometric mean; read-out: hGIPR cAMP Rel EC50 nM (SEM, n)
T1 sequence (P48546 22-466): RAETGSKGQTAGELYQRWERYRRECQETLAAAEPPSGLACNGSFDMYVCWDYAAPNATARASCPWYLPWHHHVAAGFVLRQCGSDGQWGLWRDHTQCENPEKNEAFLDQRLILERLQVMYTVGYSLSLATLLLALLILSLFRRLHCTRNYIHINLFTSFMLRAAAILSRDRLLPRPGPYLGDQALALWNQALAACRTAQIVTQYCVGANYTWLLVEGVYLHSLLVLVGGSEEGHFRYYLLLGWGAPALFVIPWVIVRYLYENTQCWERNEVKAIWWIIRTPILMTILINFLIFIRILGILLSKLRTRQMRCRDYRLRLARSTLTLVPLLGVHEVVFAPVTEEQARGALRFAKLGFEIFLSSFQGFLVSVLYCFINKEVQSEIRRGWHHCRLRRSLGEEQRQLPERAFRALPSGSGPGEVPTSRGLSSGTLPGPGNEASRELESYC

[2] = biological target: human GLP-1 receptor (GLP-1R) (Homo sapiens, UniProt P43220); assay: cAMP pharmacological functional assay in presence of casein, hGLP-1R; format: cell-based; conditions: HEK293 cells expressing hGLP-1R, 0.1% Casein, geometric mean; read-out: hGLP1R cAMP Rel EC50 nM (SEM, n)
human GLP-1 receptor (GLP-1R), sequence (P43220 24-463): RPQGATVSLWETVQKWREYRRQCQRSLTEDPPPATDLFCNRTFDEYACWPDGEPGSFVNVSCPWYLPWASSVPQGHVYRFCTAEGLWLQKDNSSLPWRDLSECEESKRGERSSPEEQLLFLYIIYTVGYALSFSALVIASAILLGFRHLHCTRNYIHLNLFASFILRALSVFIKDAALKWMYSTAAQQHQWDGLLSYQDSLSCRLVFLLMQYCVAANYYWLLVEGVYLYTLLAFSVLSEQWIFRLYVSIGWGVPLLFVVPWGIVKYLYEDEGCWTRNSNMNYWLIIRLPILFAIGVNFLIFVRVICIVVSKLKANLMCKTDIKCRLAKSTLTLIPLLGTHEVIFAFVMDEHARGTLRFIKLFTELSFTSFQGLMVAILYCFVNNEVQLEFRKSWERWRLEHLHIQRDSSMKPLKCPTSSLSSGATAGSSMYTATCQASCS

[3] = biological target: T2, human GLP-1R (Homo sapiens, UniProt P43220); assay: GLP-1R HEK293 cell membrane [35S]GTPγS binding assay; format: biochemical; set-up: expressed in transfected cells; host or cells: HEK293 cells expressing human GLP-1R; membranes; conditions: HEK293 cell membranes expressing human GLP-1R, [35S]GTPγS binding; read-out: hGLP1R GTPgS Rel EC50 nM (SEM, n)
T2 sequence (P43220 24-463): as above
Experimental: The GLP-1 receptor is a G-protein coupled receptor that increases GTP-bound Gas upon ligand induced receptor activation. The potency of peptides to stimulate-GLP-1R induced activation of Gac is determined using preparations of purified membranes from HEK293 cells expressing the human GLP-1R. […] The test peptides are solubilized in DMSO and diluted in reaction buffer containing 5 μg of membrane in 20 mM HEPES pH 7.4, 50 mM NaCl, 5 mM MgCl2, 40 μg/ml saponin, 0.1% BSA, and […] ^35S-labeled GTPTS for 30 minutes at room temperature. Reactions are terminated by addition of 0.2% Nonidet β-40 detergent containing rabbit anti-Gas polyclonal antibody and 0.5 mg of anti-rabbit polyvinyltoluene beads. Mixtures are developed for 30 minutes, centrifuged at 80×g for 10 minutes, and counted for 1 minute/well using a MicroBeta TriLux instrument. Peptide concentration-response curves are fit to a four-parameter logistic model to calculate potency as an EC50.

[4] = biological target: T3, human GIP receptor (Homo sapiens, UniProt P48546); assay: [125I]-GIP binding (SPA), human GIP receptor; conditions: read-out: hGIPR Ki, nM (SEM, n)
T3 construct: expressed in transfected cells; crude membranes
T3 sequence (P48546 22-466): T1 sequence (P48546 22-466)

[5] = biological target: T2, human GLP-1R; assay: [125I]-GLP-1 binding (SPA), human GLP-1 receptor; set-up: expressed in transfected cells; crude membranes; conditions: read-out: hGLP1R Ki, (nM) (SEM, n)
In short: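 Assay buffer: HEPES 25 mM, pH 7.4, CaCl2 2.5 mM, MgCl2 1 mM, with EDTA-free protease inhibitors. Receptor came from crude cell membranes prepared by homogenization and centrifugation at 4° C. IC50s came from four-parameter fits (maximum, minimum, IC50, Hill slope) and were expressed as Ki geometric means with SEM.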

[6] = biological target: T4, human Gcg receptor (Homo sapiens, UniProt P47871); assay: [125I]-Glucagon binding (SPA), human Gcg receptor; conditions: read-out: hGLcgR Ki, nM (SEM, n)
T4 construct: expressed in transfected cells; crude membranes
T4 sequence (P47871 26-477): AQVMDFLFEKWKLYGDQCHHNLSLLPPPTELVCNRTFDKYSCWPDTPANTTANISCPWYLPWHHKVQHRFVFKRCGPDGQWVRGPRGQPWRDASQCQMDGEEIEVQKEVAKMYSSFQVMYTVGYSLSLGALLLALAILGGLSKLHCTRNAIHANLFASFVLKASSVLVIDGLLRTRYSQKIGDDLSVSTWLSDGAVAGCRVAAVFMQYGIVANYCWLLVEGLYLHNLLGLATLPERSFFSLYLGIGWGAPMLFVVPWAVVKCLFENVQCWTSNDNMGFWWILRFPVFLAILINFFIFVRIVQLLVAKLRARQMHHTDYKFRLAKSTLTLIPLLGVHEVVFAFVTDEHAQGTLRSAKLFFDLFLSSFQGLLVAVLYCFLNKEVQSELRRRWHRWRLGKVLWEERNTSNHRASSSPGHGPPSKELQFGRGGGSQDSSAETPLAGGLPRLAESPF
In short: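 Cell pellets were lysed in hypotonic Tris buffer, pH 7.5, homogenized, and spun at low then high speed to give crude membranes. Ki was derived from the fitted IC50.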

[7] = biological target: T2, human GLP-1R; assay: GLP-1R CHO cell β-arrestin recruitment assay; format: cell-based; set-up: host or cells: CHO-K1 PathHunter cells, assay-ready frozen; conditions: CHO-K1 cells
Source text: Activated G-protein coupled receptors can interact with the β-arrestin family of signalling proteins. […] CHO-K1 cells expressing Pro-Link-tagged Human GLP-1R and enzyme-acceptor-tagged β-arrestin-2 may be obtained from DiscoveRx and prepared as assay-ready frozen cells. Test peptides are solubilized in DMSO and serial dilutions are perfomed using the Echo acoustic dispenser (LabCyte). Assay media is the PathHunter Cell Assay Buffer (DiscoveRx) containing 0.1% w/v hydrolyzed Casein (Sigma). […] Plates are incubated for 90 minutes in a 37′C/5% C02 incubator and 10 ul of PathHunter detection reagent is added (DiscoveRx) and plates are incubated at room temperature for 60 minutes. Luminescence signal is measured. Peptide concentration-response curves fit to a four-parameter logistic model to calculate potency as an EC50.

[8] = 0.1% w/v hydrolyzed Casein, read-out: hGLP1R B-Arrestin2 Rel EC50
[9] = PathHunter β-arrestin-2 recruitment, 0.1% casein, read-out: hGLP1R B-Arrestin2 Rel EC50 uM (SEM, n)

EC50 [3] | Compound | EC50 [1] | EC50 [2] | Ki [4] | Ki [5] | Ki [6] | EC50 [7, 8] | EC50 [7, 9]
1.03 nM | CC[C@H](C)[C@H](NC(=O)[C@H](CC(C)C)NC(=O)[C@H](Cc1ccc(O)cc1)NC(=O)[C@H](CCC(=O)O)NC(=O)[C@@H](NC(=O)[C@H](Cc1ccccc1)NC(=O)[C@H](C)NC(=O)C(C)(C)NC(=O)[C@H](CCC(N)=O)NC(=O)[C@H](C)NC(=O)[C@H](CCCCNC(=O)COCCOCCNC(=O)COCCOCCNC(=O)CC[C@H](NC(=O)CCCCCCCCCCCCCCCCC(=O)O)C(=O)O)NC(=O)[C@H](CCCCN)NC(=O)[C@H](CC(=O)O)NC(=O)[C@H](CC(C)C)NC(=O)[C@H](CC(C)C)NC(=O)[C@@H](NC(=O)[C@H](CO)NC(=O)[C@H](Cc1ccc(O)cc1)NC(=O)[C@H](CC(=O)O)NC(=O)[C@H](CO)NC(=O)[C@@H](NC(=O)[C@H](Cc1ccccc1)NC(=O)[C@@H](NC(=O)CNC(=O)[C@H](CCC(=O)O)NC(=O)C(C)(C)NC(=O)[C@@H](N)Cc1ccc(O)cc1)[C@@H](C)O)[C@@H](C)O)[C@@H](C)CC)C(C)C)C(=O)N[C@@H](CCC(=O)O)C(=O)NCC(=O)NCC(=O)N1CCC[C@H]1C(=O)N[C@@H](CO)C(=O)N[C@@H](CO)C(=O)NCC(N)=O [Example 298] (H-Y[Aib]EGTFTSDYSILLDKK([AEEA-AEEA-γGlu-C18 diacid])AQ[Aib]AFVEYLIEGGPSSG-NH2; N-terminus assumed) | 0.043 nM | 0.0957 nM | 0.0578 nM | 3.03 nM | > 1370 nM | – | –
0.561 nM | CC[C@H](C)[C@H](NC(=O)[C@H](CC(C)C)NC(=O)[C@H](Cc1ccc(O)cc1)NC(=O)[C@H](CCC(=O)O)NC(=O)[C@@H](NC(=O)[C@H](Cc1ccccc1)NC(=O)[C@H](CCC(=O)O)NC(=O)C(C)(C)NC(=O)[C@H](CCC(N)=O)NC(=O)[C@H](C)NC(=O)[C@H](CCCCNC(=O)COCCOCCNC(=O)COCCOCCNC(=O)CC[C@H](NC(=O)CCCCCCCCCCCCCCCCC(=O)O)C(=O)O)NC(=O)[C@H](CCCCN)NC(=O)[C@H](CC(=O)O)NC(=O)[C@H](CC(C)C)NC(=O)[C@](C)(CC(C)C)NC(=O)[C@@H](NC(=O)[C@H](CO)NC(=O)[C@H](Cc1ccc(O)cc1)NC(=O)[C@H](CC(=O)O)NC(=O)[C@H](CO)NC(=O)[C@@H](NC(=O)[C@H](Cc1ccccc1)NC(=O)[C@@H](NC(=O)CNC(=O)[C@H](CCC(=O)O)NC(=O)C(C)(C)NC(=O)[C@@H](N)Cc1ccc(O)cc1)[C@@H](C)O)[C@@H](C)O)[C@@H](C)CC)[C@@H](C)CC)C(=O)N[C@@H](CCC(=O)O)C(=O)NCC(=O)NCC(=O)N1CCC[C@H]1C(=O)N[C@@H](CO)C(=O)N[C@@H](CO)C(=O)NCC(N)=O [Example 304] (H-Y[Aib]EGTFTSDYSI[αMeL]LDKK([AEEA-AEEA-γGlu-C18 diacid])AQ[Aib]EFIEYLIEGGPSSG-NH2) | 0.0296 nM | 0.191 nM | 0.0499 nM | 4.44 nM | > 855 nM | – | –
– | CC[C@H](C)[C@H](NC(=O)[C@H](CC(C)C)NC(=O)[C@H](Cc1ccc(O)cc1)NC(=O)[C@@H](CCC(=O)O)NC(=O)[C@@H](NC(=O)[C@H](Cc1ccccc1)NC(=O)[C@H](C)NC(=O)C(C)(C)NC(=O)[C@H](CCC(N)=O)NC(=O)[C@H](C)NC(=O)[C@H](CCCCNC(=O)COCCOCCNC(=O)COCCOCCNC(=O)CC[C@H](NC(=O)CCCCCCCCCCCCCCCCCCC(=O)O)C(=O)O)NC(=O)[C@H](CCCN)NC(=O)[C@H](CC(=O)O)NC(=O)[C@H](CC(C)C)NC(=O)[C@](C)(CC(C)C)NC(=O)[C@@H](NC(=O)[C@H](CO)NC(=O)[C@H](Cc1ccc(O)cc1)NC(=O)[C@H](CC(=O)O)NC(=O)[C@H](CO)NC(=O)[C@@H](NC(=O)[C@H](Cc1ccccc1)NC(=O)[C@@H](NC(=O)CNC(=O)[C@H](CCC(=O)O)NC(=O)C(C)(C)NC(=O)[C@H](N)Cc1ccc(O)cc1)[C@@H](C)O)[C@@H](C)O)[C@@H](C)CC)C(C)C)C(=O)N[C@@H](C)C(=O)NCC(=O)NCC(=O)N1CCC[C@H]1C(=O)N[C@@H](CO)C(=O)N[C@@H](CO)C(=O)NCC(=O)N[C@@H](C)C(=O)N1CCC[C@H]1C(=O)N1CCC[C@H]1C(=O)N1CCC[C@H]1C(=O)N[C@@H](CO)C(N)=O [Example 362] (H-[dY][Aib]EGTFTSDYSI[αMeL]LD[Orn]K([AEEA-AEEA-γGlu-C20 diacid])AQ[Aib]AFV[dE]YLIAGGPSSGAPPPS-NH2) | 0.302 nM | 0.365 nM | 0.337 nM | 6.95 nM | > 1050 nM | > 11 µM | > 11 µM
– | CC[C@H](C)[C@H](NC(=O)[C@H](CC(C)C)NC(=O)[C@H](Cc1ccc(O)cc1)NC(=O)[C@@H](CCC(=O)O)NC(=O)[C@@H](NC(=O)[C@H](Cc1ccccc1)NC(=O)[C@H](C)NC(=O)C(C)(C)NC(=O)[C@H](CCC(N)=O)NC(=O)[C@H](C)NC(=O)[C@H](CCCCNC(=O)COCCOCCNC(=O)COCCOCCNC(=O)CC[C@H](NC(=O)CCCCCCCCCCCCCCCCC(=O)O)C(=O)O)NC(=O)[C@H](CCCN)NC(=O)[C@H](CC(=O)O)NC(=O)[C@H](CC(C)C)NC(=O)[C@](C)(CC(C)C)NC(=O)[C@@H](NC(=O)[C@H](CO)NC(=O)[C@H](Cc1ccc(O)cc1)NC(=O)[C@H](CC(=O)O)NC(=O)[C@H](CO)NC(=O)[C@@H](NC(=O)[C@H](Cc1ccccc1)NC(=O)[C@@H](NC(=O)CNC(=O)[C@H](CCC(=O)O)NC(=O)C(C)(C)NC(=O)[C@H](N)Cc1ccc(O)cc1)[C@@H](C)O)[C@@H](C)O)[C@@H](C)CC)C(C)C)C(=O)N[C@@H](C)C(=O)NCC(=O)NCC(=O)N1CCC[C@H]1C(=O)N[C@@H](CO)C(=O)N[C@@H](CO)C(=O)NCC(=O)N[C@@H](C)C(=O)N1CCC[C@H]1C(=O)N1CCC[C@H]1C(=O)N1CCC[C@H]1C(=O)N[C@@H](CO)C(N)=O [Example 364] (H-[dY][Aib]EGTFTSDYSI[αMeL]LD[Orn]K([AEEA-AEEA-γGlu-C18 diacid])AQ[Aib]AFV[dE]YLIAGGPSSGAPPPS-NH2) | 0.351 nM | 1 nM | 0.672 nM | 17.2 nM | > 1150 nM | > 12 µM | > 12 µM
